# Values quoted from earlier work in US20250177296A1, “SLURRY AND SOLUTION COMPOSITIONS” (MIRAKI INNOVATION THINK TANK LLC, priority 2018, published 2025).
# Conditions: pretreatment with 2% lidocaine
smiles,measurement,value
CCN(CC)CC(=O)Nc1c(C)cccc1C [lidocaine],Effect of pretreatment on pain response associated with hypertonic saline,attenuates pain response
